Experiments:
[1] = Antitumor activity against human U87 cells xenografted in mouse at 3 mg/kg, po after 10 days; assay type: functional, U-87MG ATCC
[2] = target: Serine/threonine-protein kinase mTOR (Homo sapiens, UniProt P42345)
[3] = Antitumor activity against human U87 cells xenografted in mouse at 20 mg/kg, po after 10 days; assay type: functional, U-87MG ATCC
[4] = Antitumor activity against human U87 cells xenografted in mouse at 10 mg/kg, po after 10 days; assay type: functional, U-87MG ATCC

Row | Structure (SMILES) | Ki [2] | further results
1 | COc1ccc(-c2nc3c(C)nc(N)nc3n([C@H]3CC[C@H](O)CC3)c2=O)cn1 | 6.8 nM | Activity [1]: 11%; Activity [3]: 75%; Activity [4]: 58%
2 | Cc1ccc(-c2nc3c(C)nc(N)nc3n(C3CCOCC3)c2=O)cn1 | 5 nM | 
3 | Cc1ccc(-c2nc3c(C)nc(N)nc3n([C@H]3CC[C@H](O)CC3)c2=O)cn1 | 0.85 nM | 
4 | COc1ccc(-c2cc3c(C)nc(N)nc3n(C(C)C)c2=O)cn1 | 5 nM | 
5 | COc1ccc(-c2cc3c(OC)nc(N)nc3n(C(C)C)c2=O)cn1 | > 4000 nM | 
6 | Cc1nc(N)nc2c1nc(-c1ccn[nH]1)c(=O)n2C(C)C | 6 nM | 
7 | Cc1nc(N)nc2c1nc(-c1cnn[nH]1)c(=O)n2C(C)C | 113 nM | 
8 | COc1ncc(-c2nc3c(C)nc(N)nc3n(C(C)C)c2=O)cn1 | 18 nM | 
9 | Cc1ccc(-c2nc3c(C)nc(N)nc3n([C@H]3CC[C@H](OCCO)CC3)c2=O)cn1 | 5.11 nM | 
10 | Cc1nc(N)nc2c1nc(-c1cc[nH]n1)c(=O)n2C1CCOCC1 | 0.8 nM | 

Source: ChEMBL document CHEMBL1255178, “4-methylpteridinones as orally active and selective PI3K/mTOR dual inhibitors” (Bioorg Med Chem Lett, 2010)
